Measurements as given in the supplement of paper PMC10307832.

Tests used:
Experiment in all cases: relative viability (nuclei count vs DMSO), 5 days (fraction); higher = more cells survive
Pemetrexed + OSI-027 = compound: Nc1nc2[nH]cc(CCc3ccc(C(=O)N[C@@H](CCC(=O)O)C(=O)O)cc3)c2c(=O)[nH]1 [Pemetrexed] + COc1cccc2cc(-c3nc([C@H]4CC[C@H](C(=O)O)CC4)n4ncnc(N)c34)[nH]c12 [OSI-027] (partner 0.5 µM)
Summary of the method: (§1)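 Cells from lung cancer lines were seeded into 1536-well plates and, one day later, dosed by pin tool. Treatments were either a single drug or a fixed dose of an anchor drug with five library-drug doses (not always all listed) in √10 steps. After 5 days, nuclei were stained in a one-step fixation (final 0.05% Triton X-100, 1% formaldehyde, 1 ug/ml Hoechst) and counted on 4× images, and relative viability is the treated-to-vehicle nuclei ratio, as the median of duplicate plates.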

Pemetrexed + Lapatinib = compound: Nc1nc2[nH]cc(CCc3ccc(C(=O)N[C@@H](CCC(=O)O)C(=O)O)cc3)c2c(=O)[nH]1 [Pemetrexed] + CS(=O)(=O)CCNCc1ccc(-c2ccc3ncnc(Nc4ccc(OCc5cccc(F)c5)c(Cl)c4)c3c2)o1 [Lapatinib] (partner 2 µM)
Summary of the method: as §1

Pemetrexed + Foretinib = compound: Nc1nc2[nH]cc(CCc3ccc(C(=O)N[C@@H](CCC(=O)O)C(=O)O)cc3)c2c(=O)[nH]1 [Pemetrexed] + COc1cc2c(Oc3ccc(NC(=O)C4(C(=O)Nc5ccc(F)cc5)CC4)cc3F)ccnc2cc1OCCCN1CCOCC1 [Foretinib] (partner 0.25 µM)
Summary of the method: as §1

Pemetrexed + Dasatinib = compound: Nc1nc2[nH]cc(CCc3ccc(C(=O)N[C@@H](CCC(=O)O)C(=O)O)cc3)c2c(=O)[nH]1 [Pemetrexed] + Cc1nc(Nc2ncc(C(=O)Nc3c(C)cccc3Cl)s2)cc(N2CCN(CCO)CC2)n1 [Dasatinib] (partner 0.075 µM)
Summary of the method: as §1

UMC-11
relative viability (Pemetrexed + OSI-027; first compound 0.002 µM): 0.501
relative viability (Pemetrexed + OSI-027; first compound 0.006325 µM): 0.482
relative viability (Pemetrexed + OSI-027; first compound 0.02 µM): 0.481
relative viability (Pemetrexed + OSI-027; first compound 0.06325 µM): 0.522
relative viability (Pemetrexed + OSI-027; first compound 0.2 µM): 0.487
relative viability (Pemetrexed + Lapatinib; first compound 0.002 µM): 1.24
relative viability (Pemetrexed + Lapatinib; first compound 0.006325 µM): 0.952
relative viability (Pemetrexed + Lapatinib; first compound 0.02 µM): 1.11
relative viability (Pemetrexed + Lapatinib; first compound 0.06325 µM): 1.05
relative viability (Pemetrexed + Lapatinib; first compound 0.2 µM): 0.746
relative viability (Pemetrexed + Foretinib; first compound 0.002 µM): 1.02
relative viability (Pemetrexed + Foretinib; first compound 0.006325 µM): 0.943
relative viability (Pemetrexed + Foretinib; first compound 0.02 µM): 1.14
relative viability (Pemetrexed + Foretinib; first compound 0.06325 µM): 1.02
relative viability (Pemetrexed + Foretinib; first compound 0.2 µM): 0.847
relative viability (Pemetrexed + Dasatinib; first compound 0.002 µM): 0.483
relative viability (Pemetrexed + Dasatinib; first compound 0.006325 µM): 0.451
relative viability (Pemetrexed + Dasatinib; first compound 0.02 µM): 0.468
relative viability (Pemetrexed + Dasatinib; first compound 0.06325 µM): 0.442
relative viability (Pemetrexed + Dasatinib; first compound 0.2 µM): 0.474
